Results from patent publication US4593092A, “Class of spiro-linked pyrrolidine-2,5-diones” (Kyorin Pharmaceutical Co., Ltd., priority 1983, dated 1986).
Like-named read-outs stand apart in the source and are kept apart here.

What was measured:
aldose reductase [1] = target: T1, aldose reductase (Rattus norvegicus, UniProt P07943); test: Inhibitory activity on aldose reductase in vivo (serum of orally dosed rats added to the aldose reductase assay); conditions: oral, 0.5 ml added to assay
T1 construct: partially purified enzyme from rat lens; from tissue; host or cells: rat lens
Procedure: (§1) Aldose reductase preparation used in this test was partially purified enzyme from rat lens.
In order to estimate whether the compounds are available for inhibiting the enzyme in vivo, following preliminary test was carried out.
2 and 5 hours later, blood samples were taken from the rats. A 0.5 ml of serum, instead of the compound, was added to the assay system described in Experiment 1.

[2] = Acute toxicity on mice, oral; conditions: mouse, in vivo
Procedure: Acute toxicity was tested by oral administration with the compounds of this invention in fasted mice (ICR stain).

aldose reductase [3] = target: T1, aldose reductase; test: Inhibitory activity on aldose reductase in vitro; assay type: biochemical; conditions: partially purified enzyme from rat lens
From the text: as §1

[4] = tested on: pentylenetetrazole convulsion; test: Anti-convulsion test (pentylenetetrazole convulsion); assay type: in vivo; conditions: ICR mice; Example 2 orally at 50, 200, 500 and 800 mg/kg; pentylenetetrazole 100 mg/kg i.p. 2 hours later
Procedure: Mice (ICR stain) were administered orally with the compound of Example 2 at various doses of 50, 200, 500 and 800 mg/kg and injected with pentylenetetrazole at a dose of 100 mg/kg intraperitoneally 2 hours later.

[5] = serum taken 2 hr after administration, read-out: Inhibition % on aldose reductase in vivo, 2 hr after administration
[6] = serum taken 5 hr after administration, read-out: Inhibition % on aldose reductase in vivo, 5 hr after administration

| inhibition at 25 mg/kg (aldose reductase [1]; [5]) | inhibition at 25 mg/kg (aldose reductase [1]; [6]) | IC50 (aldose reductase [3]) | SMILES | LD50 ([2]; po) | LD50 ([2]; oral, fasted ICR mice) | anti-convulsion activity (suppressive effect on pentylenetetrazole convulsion) [4] |
| --- | --- | --- | --- | --- | --- | --- |
| 52.3% | 47.6% | 5000 nM | O=C1CC2(C(=O)N1)C(=O)N1CCOc3cccc2c31 (stereo not shown) [Example 5] | – | – | – |
| 53.3% | 42.6% | 9000 nM | CC1CCc2cccc3c2N1C(=O)C31CC(=O)NC1=O (stereo not shown) [Example 3] | – | – | – |
| 48.4% | 33.8% | 2000 nM | Cc1cc2c3c(c1)C1(CC(=O)NC1=O)C(=O)N3CCC2 (stereo not shown) [Example 7, 5',6'-Dihydro-8'-methylspiro[pyrrolidine-3,1'-[4H]pyrrolo[3,2,1-ij]quinoline]-2,2',5(1'H)-trione] | – | – | – |
| 71.5% | 70.2% | 350 nM | CC1CCc2cc(Cl)cc3c2N1C(=O)C31CC(=O)NC1=O (stereo not shown) [Example 4] | – | – | – |
| 61.2% | 49.8% | 6000 nM | O=C1CC2(C(=O)N1)C(=O)N1CCCc3cccc2c31 (stereo not shown) [Example 1, 5',6'-Dihydrospiro[pyrrolidine-3,1'-[4H]pyrrolo[3,2,1-ij]quinoline]-2,2',5(1'H)-trione] | – | – | – |
| 72.3% | 71.3% | 2000 nM | O=C1CC2(C(=O)N1)C(=O)N1CCSc3cccc2c31 (stereo not shown) [Example 11] | – | – | – |
| 74.9% | 75.2% | 700 nM | O=C1CC2(C(=O)N1)C(=O)N1CCOc3c(F)c(F)cc2c31 (stereo not shown) [Example 15] | – | – | – |
| – | – | – | O=C1NC(=O)C(c2ccccc2)(c2ccccc2)N1 [phenytoin] | – | – | dose-dependent protection against the tonic convulsion |
| – | – | 35000 nM | COc1cc2c3c(c1)C1(CC(=O)NC1=O)C(=O)N3CCO2 (stereo not shown) [Example 17] | – | – | – |
| 79.8% | 79.5% | – | O=C1NC(=O)[C@@]2(CCOc3ccc(F)cc32)N1 [Sorbinil, (4S)2,3-dihydro-6-fluorospiro[4H--1benzopyran-4,4 imidazolidine2',5dione, reference compound] | – | – | dose-dependent protection against the tonic convulsion |
| 71.7% | 68.5% | 400 nM | O=C1CC2(C(=O)N1)C(=O)N1CCCc3cc(Cl)cc2c31 (stereo not shown) [Example 2, 8'-Chloro-5',6'-dihydrospiro[pyrrolidine-3,1'-[4H]pyrrolo[3,2,1-ij]quinoline]-2,2',5(1'H)-trione] | – | – | did not show any suppressive effect |

| SMILES | inhibition at 25 mg/kg (aldose reductase [1]; [5]) | inhibition at 25 mg/kg (aldose reductase [1]; [6]) | IC50 (aldose reductase [3]) | LD50 ([2]; po) | LD50 ([2]; oral, fasted ICR mice) | anti-convulsion activity (suppressive effect on pentylenetetrazole convulsion) [4] |
| --- | --- | --- | --- | --- | --- | --- |
| O=C1CC2(C(=O)N1)C(=O)N1CCOc3c(Cl)ccc2c31 (stereo not shown) [Example 12] | 72.3% | 73.9% | 1500 nM | > 2000 mg/kg | – | – |
| O=C1CC2(C(=O)N1)C(=O)N1CCOc3cc(Cl)cc2c31 (stereo not shown) [Example 8, 8'-Chloro-2',3'-dihydrospiro[pyrrolidine-3,6'-pyrrolo[1,2,3-de][1,4]benzoxazine]-2,5,5'(6'H9-trione] | 62.5% | 61.4% | 600 nM | > 2000 mg/kg | – | – |
| O=C1CC2(C(=O)N1)C(=O)N1c3ccccc3Sc3cccc2c31 (stereo not shown) [Example 6, Spiro[pyrrolidine-3,2'-pyrrolo[3,2,1-kl]phenothiazine]-1',2,5(2'H)-trione] | 11.8% | 13.4% | 350 nM | – | > 2000 mg/kg | – |
| O=C1CC2(C(=O)N1)C(=O)N1CCOc3cc(F)cc2c31 (stereo not shown) [Example 14] | 75.1% | 75.8% | 700 nM | > 1000 mg/kg | – | – |
| O=C1CC2(C(=O)N1)C(=O)N1CCOc3c(Cl)c(Cl)cc2c31 (stereo not shown) [Example 13] | 78.2% | 81.2% | 200 nM | > 2000 mg/kg | – | – |
| Cc1cc2c3c(c1)C1(CC(=O)NC1=O)C(=O)N3CCO2 (stereo not shown) [Example 16] | – | – | 2500 nM | > 2000 mg/kg | – | – |
